In this experiment the target is T1, TEK (TIE2) Y1108F (Homo sapiens, UniProt Q02763, Y1108F).
T1 construct: purchased Thermo Fisher Scientific (Life Technologies) SelectScreen
Kind of experiment: SelectScreen LanthaScreen. Particulars: read-out: % displacement. The class given is binding. The method, boiled down:
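NU5455 was profiled across the SelectScreen Broad panel of kinase activity and binding assays. Z'LYTE reactions such as CSF1R ran at apparent Km ATP, while the Adapta CAMK1 assay used ATP listed as 10. Values are given as percent.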

SMILES strings stand for the structures.

T1 sequence (Q02763 23-1124 Y1108F): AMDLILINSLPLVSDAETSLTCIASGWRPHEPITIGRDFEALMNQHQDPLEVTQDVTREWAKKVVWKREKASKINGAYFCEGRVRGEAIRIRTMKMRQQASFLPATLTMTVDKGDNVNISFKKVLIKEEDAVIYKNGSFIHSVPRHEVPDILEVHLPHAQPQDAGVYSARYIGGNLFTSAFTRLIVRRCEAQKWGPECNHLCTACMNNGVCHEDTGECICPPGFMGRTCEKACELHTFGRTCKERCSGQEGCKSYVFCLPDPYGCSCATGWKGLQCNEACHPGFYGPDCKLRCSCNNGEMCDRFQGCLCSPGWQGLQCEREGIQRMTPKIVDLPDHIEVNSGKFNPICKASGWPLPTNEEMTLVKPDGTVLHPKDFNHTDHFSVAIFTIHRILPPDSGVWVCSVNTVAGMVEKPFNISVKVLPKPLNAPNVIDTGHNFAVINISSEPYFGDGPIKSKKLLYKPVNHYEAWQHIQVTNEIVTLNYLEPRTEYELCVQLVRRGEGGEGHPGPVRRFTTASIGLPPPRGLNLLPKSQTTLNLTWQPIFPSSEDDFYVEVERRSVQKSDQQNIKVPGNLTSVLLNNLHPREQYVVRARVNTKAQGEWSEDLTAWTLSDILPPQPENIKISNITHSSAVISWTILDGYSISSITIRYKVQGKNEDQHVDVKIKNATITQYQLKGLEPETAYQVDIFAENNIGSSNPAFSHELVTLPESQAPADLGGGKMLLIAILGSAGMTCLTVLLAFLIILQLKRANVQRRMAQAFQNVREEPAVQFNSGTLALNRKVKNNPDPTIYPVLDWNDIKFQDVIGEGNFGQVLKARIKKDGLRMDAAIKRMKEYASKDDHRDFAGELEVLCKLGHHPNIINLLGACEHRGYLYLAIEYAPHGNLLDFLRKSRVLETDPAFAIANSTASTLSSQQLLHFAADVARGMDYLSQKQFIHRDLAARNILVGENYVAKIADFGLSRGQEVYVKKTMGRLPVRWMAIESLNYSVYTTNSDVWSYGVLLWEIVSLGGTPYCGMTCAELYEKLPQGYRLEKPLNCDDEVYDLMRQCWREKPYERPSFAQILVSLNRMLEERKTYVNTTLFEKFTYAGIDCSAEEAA

As to `CN(C(=O)CN1CCOCC1)c1ccc2sc3c(-c4cccc5c(=O)cc(N6CC7CCC(C6)O7)oc45)cccc3c2c1` [NU5455], the inhibition at 1 µM was -0.3%.

(Values after paper PMC6934184, “Selective DNA-PKcs inhibition extends the therapeutic index of localized radiotherapy and chemotherapy” (The Journal of Clinical Investigation, 2019).)
